Measured values published in patent publication US20240279202A1 (NURIX THERAPEUTICS, INC., priority 2021, published 2024).
Read-outs that look alike come from different tables or passages of the source.

Key:
ITK = biological target: T1, ITK (Homo sapiens, UniProt Q08881); assay: ITK degradation HiBiT assay; assay type: cell-based; design: expressed in transfected cells; host or cells: Molt4 (ATCC CRL-1552), monoclonal clone 1C10, engineered to carry the HiBiT tag; settings: 4 hrs; for DC50: C-terminal HiBiT-tagged Molt4 cells; for Dmax: MOLT-4, C-terminal HiBiT-tagged Molt4 cells
T1 sequence (Q08881 1-620): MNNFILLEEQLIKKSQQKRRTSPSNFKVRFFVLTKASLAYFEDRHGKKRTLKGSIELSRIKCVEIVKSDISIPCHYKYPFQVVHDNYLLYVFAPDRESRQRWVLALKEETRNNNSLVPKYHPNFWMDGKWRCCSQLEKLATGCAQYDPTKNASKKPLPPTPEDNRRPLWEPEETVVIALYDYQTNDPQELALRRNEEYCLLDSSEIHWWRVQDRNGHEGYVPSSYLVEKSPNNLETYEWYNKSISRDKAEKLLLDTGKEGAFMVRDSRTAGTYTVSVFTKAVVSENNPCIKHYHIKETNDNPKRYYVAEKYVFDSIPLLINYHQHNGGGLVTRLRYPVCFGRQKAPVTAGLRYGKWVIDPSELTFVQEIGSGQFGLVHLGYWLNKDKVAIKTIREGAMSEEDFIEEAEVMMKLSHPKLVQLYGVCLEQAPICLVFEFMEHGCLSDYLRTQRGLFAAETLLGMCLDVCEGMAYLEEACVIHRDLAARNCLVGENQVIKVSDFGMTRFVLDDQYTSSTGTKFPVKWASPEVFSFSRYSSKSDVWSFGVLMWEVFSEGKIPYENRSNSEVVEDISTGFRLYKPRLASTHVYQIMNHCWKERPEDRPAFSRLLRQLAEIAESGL
In short: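 C-terminal HiBiT-tagged Molt4 cells (clone 1C10) treated 4 h at 32° C with an 11-point, 5-fold compound dilution series (0.5% DMSO). HiBiT lytic detection with LgBiT then luminescence read; % ITK remaining versus concentration fit by four-parameter variable-slope model to give DC50 and Dmax.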

[1] = Mouse PK analysis (blood/plasma concentration after oral administration); assay type: in vivo; settings: mice; for AUC(0-t) / Cmax / Tmax / concentration at 1 h / concentration at 2 h / concentration at 6 h: mouse
Experimental: Compounds 1, 3, 7, and 42 were formulated and administered at 90 mg/kg to mice by oral gavage (PO). Blood was collected at defined time points (after 1, 2, and 6 hours) after compounds administration to determine PK parameters. Concentration increased through 6 hours. Six hours later mice were sacrificed and splenocytes were isolated and used to prepare protein lysates. Total protein levels were determined in the lysates using the BCA assay according to standard methods. Equal amounts of protein were then analyzed by Western blot to determine the level of ITK expression in each sample. ITK band intensities were measured using Alpha View software and the percent of ITK remaining in each test animal was determined relative to the mean of ITK levels in vehicle control samples.
Compounds 16, 17, and 18 were administered to mice orally. After 6 hours or 24 hours, splenocytes cells were harvested. ITK was evaluated by Western blotting. Plasma concentrations were determined by LC/MS/MS. Plasma samples were protein precipitated by addition of 100 μl of acetonitrile containing 50 ng/ml of internal standard. The resulting mixture was vortexed and centrifuged at 4000 RPM for 5 minutes. An aliquot of the resultant supernatant (75 μl) was added to 75 μl of 0.1% formic acid in water to constitute the final sample for injection. Samples were injected on a Shimadzu Exion LC Binary Gradient AD Pump HLPC system connected to a Sciex QTRAP 6500+mass spectrometer. Five μl of sample was injected onto a Waters Acquity UPLC BEH C18 column 130A (2.1×30 mm, […]) at 40° C. utilizing a flow rate of 700 μl/minute. Mobile Phase A was 0.1% formic acid in water and mobile phase B was 0.1% formic acid in acetonitrile. A linear gradient of 15-95% B over 1.0 minute was used. The mass spectrometer was operated in positive ion electrospray mode with multiple reaction monitoring for maximum sensitivity. Sciex Analyst software (version 1.6.3) was used for LC/MS/MS instrument control and acquisition. Compound concentration was determined against a standard curve of internal standard versus compound peak area ratio. Noncompartmental PK parameters were determined using […] software (version 8.2.0.4383) from Certara. Plasma concentrations from the LC/MS/MS analyses, dose, route of administration, and desired units were utilized for PK parameter calculations. […] FIG. 4C provides the concentration over time of compound 17 following in vivo oral administration in the 6 hour and 24 hour assays.
Cmax, Tmax and AUClast were all calculated using a WinNonLin Phoenix 64 v 8.2.0.4383. Using non-compartmental analysis, Tmax, Cmax and AUClast were determined as follows: • Tmax—Time of maximum observed concentration. • Cmax—Maximum observed concentration, occurring at time Tmax, as defined above. • AUClast—Area under the curve from the time of dosing to the time of the last measurable (positive) concentration (Tlast).

[2] = plasma, oral, 90 mg/kg, 2 h, read-out: Cal. Conc. Total (μM) 2 h
[3] = plasma, oral, 90 mg/kg, 6 h, read-out: Cal. Conc. Total (μM) 6 h

DC50 (ITK) [nM] | Dmax (ITK) [%] | Cal. Conc. Total (μM) 2 h ([1]; 2 h) | Cal. Conc. Total (μM) 6 h ([1]; 6 h) | AUC(0-t) ([1]; oral, plasma) [µM·h] | Cmax ([1]; oral, plasma) [nM] | Tmax ([1]; oral, plasma) [h] | concentration at 1 h ([1]; 90 mg/kg PO, blood, timepoint 1 h, read-out: Concentration (μM), mean calculated) [µM] | concentration at 2 h ([1]; 90 mg/kg PO, blood, timepoint 2 h, read-out: Concentration (μM), mean calculated) [µM] | concentration at 6 h ([1]; 90 mg/kg PO, blood, timepoint 6 h, read-out: Concentration (μM), mean calculated) [µM] | concentration at 1 h ([1]; plasma, oral, 90 mg/kg, 1 h, read-out: Cal. Conc. Total (μM) 1 h) [µM] | concentration at 2 h [1, 2] [µM] | concentration at 6 h [1, 3] [µM] | SMILES
1.8 | 89 | BQL | BQL | – | – | – | – | – | – | – | – | – | C[C@@H](C(=O)N(C)c1ccc2cc(-c3n[nH]c4c3CCC(C)(C)C4)[nH]c2c1)N1CCN(C(=O)C2CN(C3CCN(c4ccc5c(c4)C(=O)N(C4CCC(=O)NC4=O)C5=O)CC3)C2)CC1 (stereo partly drawn) [Compound 34, (2S)—N-(2-(6,6-dimethyl-4,5,6,7-tetrahydro-1H-indazol-3-yl)-1H-indol-6-yl)-2-(4-(1-(1-(2-(2,6-dioxopiperidin-3-yl)-1,3-dioxoisoindolin-5-yl)piperidin-4-yl)azetidine-3-carbonyl)piperazin-1-yl)-N-methylpropanamide]
2.9 | 93 | – | – | 2.34 | 720 | 6 | – | – | – | – | – | – | C[C@@]12Cc3[nH]nc(C(=O)Nc4cnn(CC5CN(C(=O)C6CN(c7ccc8c(c7)C(=O)N(C7CCC(=O)NC7=O)C8=O)C6)C5)c4)c3C[C@@H]1C2(F)F (stereo partly drawn) [Compound 43, (4aS,5aR)-N-(1-((1-(1-(2-(2,6-dioxopiperidin-3-yl)-1,3-dioxoisoindolin-5-yl)azetidine-3-carbonyl)azetidin-3-yl)methyl)-1H-pyrazol-4-yl)-5,5-difluoro-5a-methyl-1,4,4a,5,5a,6-hexahydrocyclopropa[f]indazole-3-carboxamide]
5.2 | 86 | – | – | 8.42 | 2440 | 6 | – | – | – | – | – | – | Cn1c(=O)n([C@@H]2CCC(=O)NC2=O)c2cccc(N3CCC(CN4CCN(C(=O)c5ccc6cc(-c7n[nH]c8c7CCC(C)(C)C8)[nH]c6c5)CC4)CC3)c21 [Compound 48, (R)-3-(4-(4-((4-(2-(6,6-dimethyl-4,5,6,7-tetrahydro-1H-indazol-3-yl)-1H-indole-6-carbonyl)piperazin-1-yl)methyl)piperidin-1-yl)-3-methyl-2-oxo-2,3-dihydro-1H-benzo[d]imidazol-1-yl)piperidine-2,6-dione]
0.01 | 82 | – | – | 7.07 | 2430 | 1 | – | – | – | – | – | – | CC1(C)CCc2c(-c3cc4ccc(N5CCC6(CCN(CC7CCN(c8ccc(C9CCC(=O)NC9=O)cn8)CC7)CC6)C5=O)cc4[nH]3)n[nH]c2C1 (stereo not shown) [Compound 22, 3-(6-(4-((2-(2-(6,6-dimethyl-4,5,6,7-tetrahydro-1H-indazol-3-yl)-1H-indol-6-yl)-1-oxo-2,8-diazaspiro[4.5]decan-8-yl)methyl)piperidin-1-yl)pyridin-3-yl)piperidine-2,6-dione]
0.35 | 80 | – | – | 1.38 | 405 | 6 | – | – | – | – | – | – | C[C@@H](C(=O)N(C)c1ccc2cc(-c3n[nH]c4c3C[C@@H]3C(F)(F)[C@]3(C)C4)[nH]c2c1)N1CCN(CC2CCN(c3cccc4c3n(C)c(=O)n4C3CCC(=O)NC3=O)CC2)CC1 (stereo partly drawn) [Compound 65, (2S)—N-(2-((4aS,5aR)-5,5-difluoro-5a-methyl-1,4,4a,5,5a,6-hexahydrocyclopropa[f]indazol-3-yl)-1H-indol-6-yl)-2-(4-((1-(1-(2,6-dioxopiperidin-3-yl)-3-methyl-2-oxo-2,3-dihydro-1H-benzo[d]imidazol-4-yl)piperidin-4-yl)methyl)piperazin-1-yl)-N-methylpropanamide]
0.21 | 85 | – | – | 0.154 | 46 | 6 | – | – | – | – | – | – | C[C@@H](C(=O)N(C)c1ccc2cc(-c3n[nH]c4c3C[C@@H]3C(F)(F)[C@]3(C)C4)[nH]c2c1)N1CCN(C[C@H]2CCN(c3ccc4c(c3)C(=O)N(C3CCC(=O)NC3=O)C4=O)C2)CC1 (stereo partly drawn) [Compound 9, (2S)—N-(2-((4aS,5aR)-5,5-difluoro-5a-methyl-1,4,4a,5,5a,6-hexahydrocyclopropa[f]indazol-3-yl)-1H-indol-6-yl)-2-(4-(((3R)-1-(2-(2,6-dioxopiperidin-3-yl)-1,3-dioxoisoindolin-5-yl)pyrrolidin-3-yl)methyl)piperazin-1-yl)-N-methylpropanamide]
0.29 | 76 | – | – | 1.99 | 471 | 4 | 0.228 | 0.702 | 2.71 | – | – | – | C[C@@H](C(=O)N(C)c1ccc2cc(-c3n[nH]c4c3CCC(C)(C)C4)[nH]c2c1)N1CCN(CC2CCN(c3cccc4c3n(C)c(=O)n4C3CCC(=O)NC3=O)CC2)CC1 (stereo partly drawn) [Compound 3, (2S)—N-(2-(6,6-dimethyl-4,5,6,7-tetrahydro-1H-indazol-3-yl)-1H-indol-6-yl)-2-(4-((1-(1-(2,6-dioxopiperidin-3-yl)-3-methyl-2-oxo-2,3-dihydro-1H-benzo[d]imidazol-4-yl)piperidin-4-yl)methyl)piperazin-1-yl)-N-methylpropanamide]
2.4 | 88 | – | – | – | 27 | 2 | – | – | – | – | – | – | C[C@@]12Cc3[nH]nc(C(=O)Nc4cnn(CC5CN(C[C@H]6CCN(c7ccc8c(c7)C(=O)N(C7CCC(=O)NC7=O)C8=O)C6)C5)c4)c3C[C@@H]1C2(F)F (stereo partly drawn) [Compound 44, (4aS,5aR)-N-(1-((1-(((3R)-1-(2-(2,6-dioxopiperidin-3-yl)-1,3-dioxoisoindolin-5-yl)pyrrolidin-3-yl)methyl)azetidin-3-yl)methyl)-1H-pyrazol-4-yl)-5,5-difluoro-5a-methyl-1,4,4a,5,5a,6-hexahydrocyclopropa[f]indazole-3-carboxamide]
– | – | – | – | – | – | – | – | – | – | 0.2 | 0.29 | 0.45 | C[C@@H](C(=O)N(C)c1ccc2cc(-c3n[nH]c4c3CCC(C)(C)C4)[nH]c2c1)N1CCN(CC2CCN(c3ccc(C(=O)NC4CCC(=O)NC4=O)nc3)CC2)CC1 (stereo partly drawn) [Compound 7, 5-(4-((4-((S)-1-((2-(6,6-dimethyl-4,5,6,7-tetrahydro-1H-indazol-3-yl)-1H-indol-6-yl)(methyl)amino)-1-oxopropan-2-yl)piperazin-1-yl)methyl)piperidin-1-yl)-N-(2,6-dioxopiperidin-3-yl)picolinamide]
– | – | – | – | – | – | – | – | – | – | – | 0.155 | 0.053 | CN(C(=O)C1CN(C2CCN(c3ccc4c(c3)C(=O)N(C3CCC(=O)NC3=O)C4=O)CC2)C1)c1ccc2cc(-c3n[nH]c4c3CCC(C)(C)C4)[nH]c2c1 (stereo not shown) [Compound 35, N-(2-(6,6-dimethyl-4,5,6,7-tetrahydro-1H-indazol-3-yl)-1H-indol-6-yl)-1-(1-(2-(2,6-dioxopiperidin-3-yl)-1,3-dioxoisoindolin-5-yl)piperidin-4-yl)-N-methylazetidine-3-carboxamide]
